Experimental data published in US20230330254A1 (Regeneron Pharmaceuticals, Inc., priority 2022, published 2023).
*1 amine or outer side, *2 acyl side, *3 side chain or, on linkers, in order; H or OH if unused. Where a SMILES comes first, the peptide text is derived from it. [ ]: non-standard residue; d: D form. The star is where a group is joined. Bip(2'-Et-4'-O(CH2)4NH2) = CCc1cc(OCCCCN[*:3])ccc1-c1ccc(C[C@H](N[*:1])C(=O)[*:2])cc1; X10 = O=C(NCCOCCOCCOCCOC(=O)*)OC[C@@H]1[C@@H]2CCc3[nH]nnc3CC[C@@H]21; Malonyl(2,2-Me2,histaminyl) = CC(C)(C(=O)NCCc1cnc[nH]1)C(=O)*; Nva(5-(3,5-Me2Ph)) = Cc1cc(C)cc(CCC[C@H](N)C(=O)O)c1; Ala(1H-tetrazol-5-yl) = N[C@@H](Cc1nnn[nH]1)C(=O)O; αMePhe(2-F) = C[C@](N)(Cc1ccccc1F)C(=O)O

Key:
HEK293/CRE-Luc cells [1] = experiment: Luciferase reporter assay, HEK293/CRE-Luc cells without hGLP1R (Example 11); type: cell-based, human; details: Experiment A
Excerpt: To test the activity of GLP1R agonist payloads, GLP1R agonist linker-payloads (LPs), and anti-GLP1R antibody tethered drug conjugates (ATDCs) of the disclosure, a cell-based cAMP responsive luciferase reporter assay was developed. To generate the assay cell line, the firefly luciferase gene was placed under the control of a cAMP response element (CRE) located upstream of a minimal promoter and transfected into HEK293 cells and referred to herein as HEK293/CRE-Luc cells.
Three-fold serial dilutions of free payloads or LPs were prepared in 100% DMSO, transferred to fresh assay media, and added to the cells at a final constant DMSO concentration of 0.2%. The last well in the plate served as a blank control containing only the assay media and 0.2% DMSO (untreated well) and was plotted as a continuation of the 3-fold serial dilution. Four to six hours later, luciferase activity was determined after the addition of One-Glo™ reagent (Promega, Cat #E6130) to each well. Relative light units (RLUs) were measured on an Envision luminometer (PerkinElmer) and EC50 values were determined using a four-parameter logistic equation over a 12-point dose response curve (GraphPad Prism). The signal to noise (S/N) was determined by taking the ratio of the highest RLU on the dose response curve to the RLU in the untreated wells.

HEK293/CRE-Luc cells [2] = experiment: Luciferase reporter assay, HEK293/CRE-Luc cells without GLP1R (Example 17); type: cell-based, human; details: HEK293/CRE-Luc cells without hGLP1R
How it was run: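 HEK293 cells carrying a CRE-driven firefly luciferase reporter were exposed to 3-fold serial dilutions of payloads or linker-payloads (12 points, 0.2% DMSO final) for 4–6 h, then luminescence was read. EC50 came from a four-parameter logistic fit; S/N is top RLU over untreated wells, and relative potency and S/N are referenced to M2361.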

[3] = Plasma stability of payloads and linker-payloads, human plasma; type: in vitro ADME; details: plasma, pH 7.4, tested time D (7 days), 2 μM, 37° C., read-out: Human plasma stability assay T½ (converted)
Experimental: The plasma stability of payloads and linker payloads of the disclosure were measured. For the assay, pooled frozen plasma (human, mouse or monkey) was thawed in cold water or a 37° C. water bath prior to experiment. Plasma was centrifuged at 4000 rpm for 5 min if any clots were observed, they were subsequently removed. If required, the pH was adjusted to 7.4±0.1. For the preparation of compounds and positive controls, a 1 mM intermediate solution was prepared by diluting 10 μL of their stock solution with 90 μL DMSO; a 1 mM intermediate solution of the positive control (Propantheline) was prepared by diluting 10 μL of its stock solution with 90 μL ultrapure water. […] 98 μL of plasma was spiked with 2 μL of dosing solution (100 μM) to achieve the final concentration of 2 μM in duplicate. Samples were then incubated at 37° C. in a water bath. […] At each time point, 400 μL of stop solution (200 ng/mL tolbutamide plus 200 ng/mL labetalol in 50% ACN/MeOH) was added to precipitate protein and mixed thoroughly. Sample plates were then centrifuged at 4,000 rpm for 10 min. An aliquot of supernatant (50 μL) was transferred from each well and mixed with 100 μL ultrapure water. The samples were then shaken at 800 rpm for approximately 10 min before submitting for LC-MS/MS analysis.

Row | Structure (SMILES) | HEK293/CRE-LUC S/N (HEK293/CRE-Luc cells [1]; Table 11, no hGLP1R expression) | HEK293/CRE-Luc S/N (HEK293/CRE-Luc cells [1]; Table 12) | S/N (HEK293/CRE-Luc cells [2]; ATDCs and references (Table 27)) | S/N (HEK293/CRE-Luc cells [2]; payloads and linker-payloads) | half-life at 2 µM [3] [days]
1 | CC[C@H](C)[C@H](NC(=O)[C@H](Cc1ccccc1)NC(=O)[C@H](CCC(=O)O)NC(=O)[C@H](CCCCN)NC(=O)[C@H](C)NC(=O)[C@H](C)NC(=O)[C@H](CCC(N)=O)NC(=O)CNC(=O)[C@H](CCC(=O)O)NC(=O)[C@H](CC(C)C)NC(=O)[C@H](Cc1ccc(O)cc1)NC(=O)[C@H](CO)NC(=O)[C@H](CO)NC(=O)[C@@H](NC(=O)[C@H](CC(=O)O)NC(=O)[C@H](CO)NC(=O)[C@@H](NC(=O)[C@H](Cc1ccccc1)NC(=O)[C@@H](NC(=O)CNC(=O)[C@H](CCC(=O)O)NC(=O)[C@H](C)NC(=O)[C@@H](N)Cc1c[nH]cn1)[C@@H](C)O)[C@@H](C)O)C(C)C)C(=O)N[C@@H](C)C(=O)N[C@@H](Cc1c[nH]c2ccccc12)C(=O)N[C@@H](CC(C)C)C(=O)N[C@H](C(=O)N[C@@H](CCCCN)C(=O)NCC(=O)N[C@@H](CCCNC(=N)N)C(N)=O)C(C)C [GLP1, glucagon-like peptide 1, reference compound] | 1.3 | 1.4 | 1.4 | 1.3 | 
2 | CCc1cc(OCCCCn2cc(COCCOCCOCCOCCNC(=O)OC[C@@H]3[C@@H]4CCc5[nH]nnc5CC[C@@H]43)nn2)ccc1-c1ccc(C[C@H](NC(=O)[C@H](CC(=O)O)NC(=O)[C@H](CO)NC(=O)[C@@H](NC(=O)[C@](C)(Cc2ccccc2F)NC(=O)[C@@H](NC(=O)CNC(=O)[C@H](Cc2nn[nH]n2)NC(=O)C(C)(C)C(=O)NCCc2cnc[nH]2)[C@@H](C)O)[C@@H](C)O)C(=O)N[C@@H](CCCc2cc(C)cc(C)c2)C(N)=O)cc1 [LP24, triazole-BCN-PEG4-triazole-P8] |  |  |  |  | > 16.9
3 | CCc1cc(OCCCCNC(=O)OCCOCCOCCOCCNC(=O)OC[C@@H]2[C@@H]3CCc4[nH]nnc4CC[C@@H]32)ccc1-c1ccc(C[C@H](NC(=O)[C@H](CC(=O)O)NC(=O)[C@H](CO)NC(=O)[C@@H](NC(=O)[C@](C)(Cc2ccccc2F)NC(=O)[C@@H](NC(=O)CNC(=O)[C@H](Cc2nn[nH]n2)NC(=O)C(C)(C)C(=O)NCCc2cnc[nH]2)[C@@H](C)O)[C@@H](C)O)C(=O)N[C@@H](CCCc2cc(C)cc(C)c2)C(N)=O)cc1 [LP25, triazole-BCN-PEG4-carba-mate-P9] ({Malonyl(2,2-Me2,histaminyl)}-[Ala(1H-tetrazol-5-yl)]GT[αMePhe(2-F)]TSD[Bip(2'-Et-4'-O(CH2)4NH2)](X10)[Nva(5-(3,5-Me2Ph))]-NH2) |  |  |  |  | 11.9
4 | CCc1cc(OCCCCNC(=O)[C@H](CO)NC(=O)CNC(=O)CNC(=O)CNC(=O)CNC(=O)CCC(=O)N2Cc3ccccc3-c3nn[nH]c3-c3ccccc32)ccc1-c1ccc(C[C@H](NC(=O)[C@H](CC(=O)O)NC(=O)[C@H](CO)NC(=O)[C@@H](NC(=O)[C@](C)(Cc2ccccc2F)NC(=O)[C@@H](NC(=O)CNC(=O)[C@H](Cc2nn[nH]n2)NC(=O)C(C)(C)C(=O)NCCc2cnc[nH]2)[C@@H](C)O)[C@@H](C)O)C(=O)N[C@@H](CCCc2cc(C)cc(C)c2)C(N)=O)cc1 [LP26, triazole- DIBAC- G4S-P9] |  |  |  |  | > 16.9
